# Data published in patent publication US20120052555A1, “ENRICHMENT OF LISTERIA SPP” (SAMSUNG TECHWIN CO., LTD., priority 2010, published 2012).
# “Also recorded” adds a separate entry of the source.
# Key:
# Listeria monocytogenes = test: Effect of LiCl concentration in Minimal Medium A1 on cell growth (PCR Cp); format: cell-based; conditions: LiCl 1, 3, 5, 7, 9 or 10 g/L in Minimal Medium A1
# Description: 300 μL of overnight cultures (about of 3×10^9 CFU/ml) of Listeria monocytogenes in a brain hear infusion (BHI) medium was added into 30 mL of each of the pre-warmed media in 250 ml glass flask. Each mixture was cultured without shaking at 35° C. for 24 hours. Aliquots (20 μL) of the culture products were collected from each container after culture for 1, 2, 3, 4, 5, 6, 7, 8, 9 and 24 hours, respectively. Each culture product was treated with a TZ lysis buffer with 1 mg/ml proteinase K, and incubated at 55° C. for 15 min, 95° C. for 10 min, and cooled at 4° C. for 2 min. Cell lysates were added into the PCR mixture for real-time PCR. The PCR mixture contained forward and reverse primers of SEQ ID NOs. 5 and 6, the probe of SEQ ID No. 7, and the RNase H. The primers and probe were specific to the InlA gene of L. monocytogenes. The 5′ and 3′ ends of the probe were labeled with FAM and Iowa BFQ ([…]), respectively.
# The PCR conditions were as follows: UNG activation at 37° C. for 600 seconds; Denaturation at 95° C. for 600 seconds; Denaturation at 95° C. for 15 seconds; and annealing and elongation at 60° C. for 20 seconds (50 cycles). […]
# L. grayi strains = test: Culture of five L. grayi strains in the presence of antibiotics; format: cell-based, Listeria grayi; conditions: 35° C. in Minimal Media A1; 10 mg/L acriflavine, 40 mg/L nalidixic acid, 10 mg/L polymyxin B, 40 mg/L ceftazidime
# Description: Separately, five L. grayi strains were cultured at 35° C. in the Minimal Media A1 supplemented separately with 10 mg/L of acriflavine, 40 mg/L of nalidixic acid, 10 mg/L of polymyxin B, 40 mg/L of ceftazidime, and a combination thereof. As a result, the effects of each antibiotic on the growth of L. grayi were trivial. […] The two strains reached maximum cell densities within about 24 hours.
# [1] = tested on: heat-injured Listeria monocytogenes; test: Recovery of sub-lethally heat-injured Listeria cells on Minimal Medium A1 agar; format: cell-based; conditions: cells heated 50° C. 10 minutes; for effect in recovering heat-injured Listeria spp.: Minimal Medium supplemented with the agent
# Description: Most Listeria infection cases are associated with pasteurized dairy products. Therefore, the effects of the Minimal Medium A1 on the recovery of sub-lethally heat-injured Listeria spp. were investigated. Overnight-cultured Listeria monocytogenes was serially diluted by 10 folds with PBS. 1 mL of the culture suspension (about 3780 CFU) was cultured at 50° C. for 10 minutes, and 0.1 mL of the culture product was inoculated on the Minimal Medium A1 in agar plate (1.5% agar) in the presence or non-presence of selective agents.
# FIG. 4 is a graph illustrating the effects of medium ingredients on the recovery of heat-injured Listeria spp. […] In FIG. 4, “Pyruvate” indicates a Minimal Medium A1 supplemented with sodium pyruvate, “A1-NONE” indicates a Minimal Medium A1 supplemented with none, and “BHI-NONE” indicates a brain heart infusion medium supplemented with none. “Acriflavine,” “Nalidixic acid,” “Polymyxin B,” “Ceftazidime” and “All” denote Minimal Media A supplemented with […], 40 mg/L of nalidixic acid, 10 mg/L of polymyxin B, 40 mg/L of ceftazidime, and all of these antibiotics, respectively.
# background microflora = test: Effects of antibiotics on background microflora of ground beef (aerobic plate counts); format: cell-based; conditions: 10 g/L ground beef, 35° C., Minimal Media A; among the four antibiotics
# Description: In addition, effects of antibiotics on background microflora were investigated. First, 10 g/L of ground beef was cultured at 35° C. in the Minimal Media A supplemented separately with 10 mg/L of acriflavine, 40 mg/L of nalidixic acid, 10 mg/L of polymyxin B, 40 mg/L of ceftazidime, and a combination thereof. The cell concentrations before and after culture were determined based on aerobic plate counts. The aerobic plate counts were determined by inoculating 100 μL of the culture products into Difco® Plate Count agar medium, culturing the mixture at 35° C. for 24 hours, and counting cell colonies
# FIG. 3 is a graph illustrating the effects of antibiotics on background microflora. Referring to FIG. 3, the growth of the background microfluora was inhibited about 100 times more strongly when the four antibiotics were added together, than when they were used individually.
Molecule,effect of LiCl concentration on Cp values / cell growth (Listeria monocytogenes),effect on the growth of L. grayi (L. grayi strains),effect in recovering heat-injured Listeria spp. [1],inhibitory effect on cell growth of background microflora (background microflora),recovery rate of heat-injured Listeria spp. ([1]; 10 g/L of sodium pyruvate compared to 10 mM of MgCl2)
"[Cl-].[Li+] [LiCl, lithium chloride]",high LiCl concentration helped recovery of Listeria; also recorded: the smaller the Cp values and the more the cell growth was enhanced,–,–,–,–
CC(C)(O/N=C(\C(=O)N[C@@H]1C(=O)N2C(C(=O)[O-])=C(C[n+]3ccccc3)CS[C@H]12)c1csc(N)n1)C(=O)O [ceftazidime],–,trivial,positive effects,–,–
CCn1cc(C(=O)O)c(=O)c2ccc(C)nc21 [nalidixic acid],–,trivial,–,strongest inhibitory effect on cell growth,–
CC(=O)C(=O)[O-].[Na+] [sodium pyruvate],–,–,positive effects,–,recovery rate was improved
acriflavine,–,trivial,positive effects,–,–
polymyxin B,–,trivial,positive effects,–,–
